Consider 7 compounds from paper PMC4201456, “Cytoxicity and Apoptotic Mechanism of Ruthenium(II) Amino Acid Complexes in Sarcoma-180 Tumor Cells” (PLoS ONE, 2014).

One assay deals with L929 normal cells. Nature of the assay: MTT cell viability assay, L929 normal cells. As to conditions: L929 normal cell line, 48 h. The format is cell-based, murine. The method, then: (§1) The murine sarcoma-180 tumor cells (S180) (ATCC# TIB-66) and normal murine fibroblast cells (L-929) (ATCC# CCL-1) were cultured in suspension in RPMI 1640 and DMEM media (Sigma Chemical Co., MO), respectively, supplemented with 10% fetal calf serum, 100 µg/mL penicillin, and 100 µg/mL streptomycin. The cultures were incubated in a humidified incubator (Thermo Scientific) at 37°C with 5% CO2.
(§2) The cytotoxic effects of the amino acid ruthenium complexes were evaluated using an MTT assay with S180 tumor cells and L929 normal cells as described previously. Briefly, 1.0×10^5 S180 cells and 2.0×10^4 L929 cells were plated in 96-well tissue culture plates and treated with different concentrations of amino acid ruthenium complexes (0.2–200 µM) for 48 h. After treatment, 10 µL of MTT (5 mg mL^−1) was added to each well, and the plates were incubated at 37°C for an additional 3 h. The purple formazan crystals were dissolved in 50 µL of SDS, and the absorbance was determined at 545 nm using a Stat Fax 2100 microplate reader (Awareness Technology, Palm City, FL, USA). The cell viability was calculated as follows: viability (%) = (absorbance of the treated wells)/(absorbance of the control wells) ×100. The IC50 (complex concentration (µM) that results in a 50% reduction in cellular viability) was obtained from dose-response curves using GraphPad Prism 4.02 for Windows (GraphPad Software, San Diego, CA, USA).
(Tetrazolium dyes change colour on reduction, which living cells bring about.)

For the next assay, the system named is S180 tumor cells. The experiment in a line: MTT cell viability assay, S180 tumor cells. It is filed as cell-based, murine. As to conditions: S180 tumor cell line, 48 h. The method, then: as §1, §2
The next assay deals with pBR322 plasmid DNA. More on the design: method as in PMID 21875763. The note with it: previous study; cited from earlier work.
The subject of the next assay is S180 cells. More on the design: method as in earlier work. The note with it: previous studies; cited from earlier work.

A word on the IC50: it is the concentration needed to halve the response being measured. The low end stands for inhibition by little substance, the high end for a need for much substance. Regarding `N.N.[Cl][Pt][Cl]` [Cisplatin, cisplatin, reference compound], the results for the IC50 in the assay with L929 normal cells and in the assay on S180 tumor cells were 29.1 ± 1.88 µM and 64.83 ± 0.17 µM, respectively.

In the case of `CSCC[C@H](N)C(=O)[O-].F[P-](F)(F)(F)(F)F.[Ru+2].c1ccc(-c2ccccn2)nc1.c1ccc(P(CCCCP(c2ccccc2)c2ccccc2)c2ccccc2)cc1` [Complex 1, [Ru(met)(bipy)(dppb)]PF6], the IC50 with L929 normal cells worked out at 27.4 ± 3.32 µM; in the assay with S180 tumor cells, 22.5 ± 3.4 µM.

As for `CC(C)C[C@H](N)C(=O)[O-].F[P-](F)(F)(F)(F)F.[Ru+2].c1ccc(-c2ccccn2)nc1.c1ccc(P(CCCCP(c2ccccc2)c2ccccc2)c2ccccc2)cc1` [Complex 3, [Ru(leu)(bipy)(dppb)]PF6], the IC50 turned out to be 47.1 ± 5.94 µM in the assay with L929 normal cells and 38.2 ± 7 µM with S180 tumor cells.

For `F[P-](F)(F)(F)(F)F.F[P-](F)(F)(F)(F)F.N[C@@H](CC(=O)O)C(=O)O.[Ru+2].c1ccc(-c2ccccn2)nc1.c1ccc(P(CCCCP(c2ccccc2)c2ccccc2)c2ccccc2)cc1` [Complex 4, [Ru(aspac)(bipy)(dppb)](PF6)2], the IC50 with L929 normal cells amounted to 107 ± 8.98 µM; in the assay with S180 tumor cells, 42.2 ± 3.98 µM.

With `C[C@H](N)C(=O)[O-].F[P-](F)(F)(F)(F)F.[Ru+2].c1ccc(-c2ccccn2)nc1.c1ccc(P(CCCCP(c2ccccc2)c2ccccc2)c2ccccc2)cc1` [Complex 5, [Ru(ala)(bipy)(dppb)]PF6], the IC50 with L929 normal cells turned out to be 97.8 ± 8.99 µM; with S180 tumor cells it was 50.2 ± 1.03 µM.

Regarding `F[P-](F)(F)(F)(F)F.O=C1[O][Ru-4]23([n+]4ccccc41)([n+]1ccccc1-c1cccc[n+]12)[P+](c1ccccc1)(c1ccccc1)CCCC[P+]3(c1ccccc1)c1ccccc1` [[Ru(pic)(dppb(bipy)]PF6], in the assay with pBR322 plasmid DNA, the “effect on plasmid DNA (AFM images)” value is “strong aggregation of plasmid DNA”.

In the case of `N.N.N.N.[Cl-].[Cl][Ru+][Cl]` [cis-[RuCl2(NH3)4]Cl], in the assay on S180 cells, the “numbers of Annexin V-positive S180 cells” value was “increased the numbers of Annexin V-positive S180 cells”.
